US20230295213A1, “CD73 INHIBITORS AND PHARMACEUTICAL USES THEREOF” (RISEN (SUZHOU) PHARMA TECH CO., LTD., priority 2018, published 2023)
Where two headings read alike, the source gives them in different places.

Experiments:
[1] = Pharmacokinetic evaluation in ICR mice, intravenous; type: in vivo; details: mouse; ICR male mice, 1.0 mg/kg intravenous, plasma
Procedure: A test compound (1.0 mg/kg) was administered to fasted ICR male mice via intravenous injection, and blood samples were collected at time points of 0.08, 0.25, 0.5, 1, 2, 4, 6, 8 and 24 h after the administration. Plasma sample was separated by centrifugation (8000 rpm) and stored at −80° C. until the sample was analyzed. Concentrations of the test compound in the plasma were determined by HPLC-MS/MS: the plasma was dispensed into appropriate tubes containing internal standard and methanol or acetonitrile. The tubes were mixed vigorously for 3 minutes to achieve deproteinization and then centrifuged at 8000 rpm for 5 minutes. The supernatant was transferred to an autosampler vial, injected into the chromatographic system, and quantified on MS/MS detector. Pharmacokinetic parameters including AUC0-t, Cmax, Tmax, t1/2, MRT, Cl and Vd were calculated using WinNonlin 6.3 software. Table 3 summarizes key PK parameters for test compounds (AUC(0-t): the area under the curve from time 0 to time t; AUC(0-∞): the area under the curve from time 0 to infinity; t1/2: Half-life; CL: clearance; C0: the concentration of drug in blood if the drug molecules enter the circulation and are distributed immediately (i.e., at time 0)).

[2] = biological target: Recombinant human 5′-nucleotidase (hCD73) (Homo sapiens (Human), UniProt P21589); test: CD73 enzyme inhibition assay (hCD73, AMP substrate, PiColorLock Gold phosphate detection); type: biochemical; details: hCD73 1 nM solution, AMP 60 μM solution, 37° C. 20 min, absorbance 635 nm
Sequence of Recombinant human 5′-nucleotidase (hCD73) (P21589 27-574): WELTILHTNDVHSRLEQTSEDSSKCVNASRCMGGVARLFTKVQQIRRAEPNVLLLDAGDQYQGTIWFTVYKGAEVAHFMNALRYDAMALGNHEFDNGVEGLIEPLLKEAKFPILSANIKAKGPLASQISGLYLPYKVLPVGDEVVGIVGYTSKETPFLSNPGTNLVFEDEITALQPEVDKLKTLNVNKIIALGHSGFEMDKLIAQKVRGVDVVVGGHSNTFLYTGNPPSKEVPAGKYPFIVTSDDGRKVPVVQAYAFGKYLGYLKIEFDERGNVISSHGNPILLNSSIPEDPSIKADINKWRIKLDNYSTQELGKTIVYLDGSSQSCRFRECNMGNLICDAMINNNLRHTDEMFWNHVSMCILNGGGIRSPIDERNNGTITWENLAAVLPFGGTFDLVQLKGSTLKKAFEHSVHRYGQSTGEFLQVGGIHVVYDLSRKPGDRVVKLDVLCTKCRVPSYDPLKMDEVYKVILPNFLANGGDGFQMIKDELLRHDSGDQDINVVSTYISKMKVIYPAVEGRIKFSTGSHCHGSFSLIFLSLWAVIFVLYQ
Procedure: Test compound solution preparation: Stock solution of a test compound was prepared in DMSO at 10 mM concentration. A series of preset 10-concentration solutions of a test compound were prepared by diluting the stock solution in 5-fold gradient dilution with DMSO.
Assay buffer (lx): 20 mm Tris, 25 mM NaCl, 1 mM MgCl2, pH 7.5, 0.005% Tween-20 (freshly prepared, and ready for use).
An aliquot of 0.25 μL of compound solution or DMSO (blank control) was added to each test well of a micro well plate. Recombinant human 5′-nucleotidase (hCD73) was diluted to 1 nM in assay buffer; and an aliquot of 25 μL hCD73 (1 nM) solution was added to the corresponding wells of the plate. The contents of the well were well-mixed, and the plate was covered with sealing film, centrifuged at 1000 rpm for 30 sec., followed by incubation at room temperature for 15 min. AMP, the substrate, was diluted to 60 μM concentration in the assay buffer. To each reaction well was added 25 μL of AMP solution. After mixing well, the plate was covered with sealing film, centrifuged at 1000 rpm for 30 sec., and incubated at 37° C. for 20 min. The absorbance signal (end point) was measured on SPARK plate reader at 635 nm (See PiColorLock™ Gold Phosphate Detection System (Abcam) test kit for reference).
The reaction wells containing CD73 enzyme, substrate AMP and DMSO (no compound) were used as positive control, and the reaction wells containing substrate AMP and DMSO but no CD73 enzyme were used as negative control. The percent (%) inhibition at each concentration of compound was calculated based on and relative to the signal in the High and Low control wells contained within each assay plate. The High control wells were considered as 0% inhibition, and the low control wells, which didn't contain any compound but rather DMSO (final concentration=0.5%), as 100% inhibition. IC50 values were obtained using GraphPad Prism software.

[3] = biological target: T1, CD73 (Homo sapiens (Human), UniProt P21589); test: CD73 cellular assay (T cell stimulation assay); type: cell-based; details: human T cells, anti-CD3/CD28 stimulated, AMP + EHNA, 72 hours
T1 sequence (P21589 27-574): as above
Procedure: Procedures for T cell stimulation assay were the following: Day 1, coating the plate: diluting anti-CD3 to 1 μg/mL with sterile PBS; coating 96 well flat bottom tissue culture plates (Corning #3599) with 50 uL of diluted anti-CD3, centrifuging (1000 rpm) for 1 min; sealing the plate and incubating the plate at 4° C. overnight for antibody crosslinking.
Day 2, human T cell seeding: (a) washing the coated plate (from Day 1) with sterilized PBS buffer (2×100 uL); (b) re-suspending T cells and adjusting cell density to 0.5×10^6 cells/mL with growth media (X-VIVO 15+1% Pen/strep+1% glutamine), and seeding 100 μL/well (50,000 cells/well) in 96-well plates; (c) diluting CD28 antibody for 8x working concentration (8 μg/mL) with growth media, giving 1 μg/mL of the final concentration, followed by addition of CD28 antibody (25 μL) to cell plate; incubating the plates under 5% CO2 at 37° C. for 60 min; (d) adding compound (25 μL, 8x dilution with growth media) to cell plate, and incubating the plates under 5% CO2 at 37° C. for 60 min; (e) adding AMP (25 μL) and EHNA (25 μL, 8x dilution with growth media) to cell plate; (f) incubating the plates under 5% CO2 at 37° C. for 72 hours.
Day 5, collecting cell growth media and testing cell proliferation: (a) centrifuging the cell plate (1,000 rpm) for 5 min; (b) harvesting 150 μL of the cell culture media from each well to 96 well plate, followed by measurement of IFN-r expression by ELISA test; (c) taking a portion of the cell culture supernatant for cytokine analysis, removing the remaining supernatant, followed by addition of fresh growth media (X-VIVO 15+1% Pen/strep+1% glutamine, 100 μL); (d) adding Celltiter-Glo solution (50 μL) into each well for the measurement of cell proliferation by: (e) incubating the plates at room temperature for 10 min on a shaker; (f) transferring 100 μL solution into 96-well white plate and taking the readout of the Celltiter-Glo data using a TECAN Reader.

[4] = biological target: T1, CD73; test: CD73 enzyme inhibition assay (Malachite Green Phosphate Detection Kit); type: biochemical; details: for inhibitory activity in the CD73 enzyme assay: qualitative statement; for IC50: CD73 protein 0.5 μg/mL (2x), Tris-HCl pH 7.3, OD 620 nm, read-out: Potency (IC50 class), inhibitory activity in CD73 enzyme assay
Procedure: To evaluate the inhibitory effect of selected compounds on CD73, Malachite Green Phosphate Detection Kit (R&D, Cat #DY996) was used. Briefly, compounds were dissolved and diluted to the desired concentration using phosphate-free buffer (Tris-HCl, pH 7.3). 25 μL of the compound solution was added to an equal volume of CD73 protein solution (2× concentration, 0.5 μg/mL, Novoprotein, Cat #C446), followed by a 5-minute incubation at room temperature. 10 μL of Malachite Green Reagent A was added to each well, mixed thoroughly and incubated for 10 minutes at room temperature. 10 μL of Malachite Green Reagent B was then added to each well, mixed thoroughly and incubated for 20 minutes at room temperature. Finally, the optical density of each well was determined using a microplate reader set to 620 nm.

[5] = read-out: EC50, CTG (CellTiter-Glo, cell proliferation)
[6] = read-out: EC50, IFN-γ (ELISA, indicator for T-cell activity)

Row | SMILES | AUC(0-inf) [1] | AUC(0-t) [1] | Cmax [1] | half-life [1] | IC50 [2] | also measured
1 | O=P(O)(O)CP(=O)(O)OC[C@H]1O[C@@H](n2cnc3c(N4CC5(CCC5)c5ccccc54)nc(Cl)nc32)[C@@H](O)C1O (stereo partly drawn) [d-20] | 121000 ng·h/mL | 94000 ng·h/mL | 15600 ng/mL | 12.2 h | 1.29 nM | –
2 | O=P(O)(O)CP(=O)(O)OC[C@H]1O[C@@H](n2cnc3c(N4CC(c5ccccc5)C(c5ccccc5)C4)nc(Cl)nc32)[C@@H](O)C1O (stereo partly drawn) [d-36] | – | – | – | – | 1.86 nM | –
3 | O=P(O)(O)CP(=O)(O)OC[C@H]1O[C@@H](n2cnc3c(N4CC5(CCc6ccccc65)C4)nc(Cl)nc32)[C@@H](O)C1O (stereo partly drawn) [d-1] | 6360 ng·h/mL | 6360 ng·h/mL | 8850 ng/mL | 0.556 h | 0.47 nM | –
4 | O=P(O)(O)CP(=O)(O)OC[C@H]1O[C@@H](n2cnc3c(N4CCC5(CCCCC5)C4)nc(Cl)nc32)C(O)C1O (stereo partly drawn) [Compound b, reference compound] | – | – | – | – | – | EC50 [3, 5]: 7.53 nM; EC50 [3, 6]: 14.2 nM
5 | O=P(O)(O)CP(=O)(O)OC[C@H]1O[C@@H](n2cnc3c(N4CC(c5ccccc5)c5ccccc54)nc(Cl)nc32)[C@@H](O)C1O (stereo partly drawn) [Compound d-38] | – | – | – | – | 1.92 nM | –
6 | O=P(O)(O)CP(=O)(O)OC[C@H]1O[C@@H](n2cnc3c(N4CCC(c5ccccc5)(c5ccccc5)C4)nc(Cl)nc32)C(O)C1O (stereo partly drawn) [d-33] | – | – | – | – | 1.76 nM | EC50 [3, 5]: 4.07 nM; EC50 [3, 6]: 2.53 nM
7 | O=P(O)(O)CP(=O)(O)OC[C@H]1O[C@@H](n2cnc3c(N4CCC5(CC4)Cc4ccccc4C5)nc(Cl)nc32)[C@@H](O)C1O (stereo partly drawn) [d-21] | 7450 ng·h/mL | 7430 ng·h/mL | 12200 ng/mL | 0.898 h | 1.42 nM | –
8 | O=P(O)(O)CP(=O)(O)OC[C@H]1O[C@@H](n2cnc3c(N4CC5(CCc6ccccc65)C4)nc(Cl)nc32)C(O)C1O (stereo partly drawn) [d-1] | – | – | – | – | – | EC50 [3, 5]: 3.13 nM; EC50 [3, 6]: 1.45 nM
9 | O=P(O)(O)CP(=O)(O)OC[C@H]1O[C@@H](n2cnc3c(N4CC5(Cc6ccccc6C5)C4)nc(Cl)nc32)[C@@H](O)C1O (stereo partly drawn) [d-9] | 22500 ng·h/mL | 19700 ng·h/mL | 10700 ng/mL | 2.95 h | 0.73 nM | –
10 | O=P(O)(O)CP(=O)(O)OC[C@H]1O[C@@H](n2cnc3c(N4CC(c5ccccc5)(c5ccccc5)C4)nc(Cl)nc32)[C@@H](O)C1O (stereo partly drawn) [d-35] | – | – | – | – | 1.39 nM | –
11 | O=P(O)(O)CP(=O)(O)OC[C@H]1O[C@@H](n2cnc3c(N4CC5(CCCCC5)c5ccccc54)nc(Cl)nc32)[C@@H](O)C1O (stereo partly drawn) [d-7] | 197000 ng·h/mL | 107000 ng·h/mL | 12500 ng/mL | 21.3 h | 1.8 nM | –
12 | O=P(O)(O)CP(=O)(O)CC[C@H]1O[C@@H](n2cnc3c(N4CCC5(CCCCC5)C4)nc(Cl)nc32)[C@@H](O)C1O (stereo partly drawn) [a-31] | – | – | – | – | – | inhibitory activity in the CD73 enzyme assay [4]: showed inhibitory activity
13 | O=P(O)(O)CP(=O)(O)OC[C@H]1O[C@@H](n2cnc3c(N4CC5(CCCc6ccccc65)C4)nc(Cl)nc32)[C@@H](O)C1O (stereo partly drawn) [d-12] | 9900 ng·h/mL | 9860 ng·h/mL | 8560 ng/mL | 0.949 h | 0.4 nM | –
14 | O=P(O)(O)CP(=O)(O)CC[C@H]1O[C@@H](n2cnc3c(NCc4ccccc4)nc(Cl)nc32)[C@@H](O)C1O (stereo partly drawn) [a-1] | – | – | – | – | – | inhibitory activity in the CD73 enzyme assay [4]: showed inhibitory activity
15 | O=P(O)(O)CP(=O)(O)OC[C@H]1O[C@@H](n2cnc3c(N4CCC5(CCc6ccccc65)C4)nc(Cl)nc32)[C@@H](O)C1O (stereo partly drawn) [d-8] | – | – | – | – | 0.75 nM | –
16 | O=P(O)(O)CP(=O)(O)OC[C@H]1O[C@@H](n2cnc3c(NC4C5CC6CC(C5)CC4C6)nc(Cl)nc32)[C@@H](O)C1O (stereo partly drawn) [Compound 17] | – | – | – | – | – | IC50 [4]: < 10 nM
17 | O=P(O)(O)CP(=O)(O)OC[C@H]1O[C@@H](n2cnc3c(N4CCC5(CCCCC5)C4)nc(Cl)nc32)[C@@H](O)C1O (stereo partly drawn) [Compound b, reference compound] | 9120 ng·h/mL | 9110 ng·h/mL | 15200 ng/mL | 0.85 h | 1.08 nM | –
18 | O=P(O)(O)CP(=O)(O)OC[C@H]1O[C@@H](n2cnc3c(Nc4ccc5cc6ccccc6cc5c4)nc(Cl)nc32)C(O)C1O (stereo partly drawn) [Compound 20] | – | – | – | – | – | IC50 [4]: 10 to 100 nM
19 | CCCCCCCCCCCCOC(=O)Nc1nc(Cl)nc2c1ncn2[C@@H]1O[C@H](COP(=O)(O)CP(=O)(O)O)C(O)[C@@H]1O (stereo partly drawn) [Compound 15] | – | – | – | – | – | IC50 [4]: < 10 nM
20 | O=P(O)(O)CP(=O)(O)OC[C@H]1O[C@@H](n2cnc3c(NC45CC6CC(CC(C6)C4)C5)nc(Cl)nc32)[C@@H](O)C1O (stereo partly drawn) [Compound 22] | – | – | – | – | – | IC50 [4]: < 10 nM
21 | O=P(O)(O)CP(=O)(O)OC[C@H]1O[C@@H](n2cnc3c(N4CC5(CCCC5)c5ccccc54)nc(Cl)nc32)[C@@H](O)C1O (stereo partly drawn) [d-13] | 298000 ng·h/mL | 108000 ng·h/mL | 11600 ng/mL | 39.5 h | 1.5 nM | –
